Test results from US8273771B2, “Ischemic disorder or disease inhibitors” (Pronas Pharma AB, priority 2007, dated 2012).

Key:
[1] = system: rats with induced SAH; assay: Physiological parameters in operated SAH rats; type: in vivo, rat; conditions: sham, SAH+vehicle and treated SAH groups
Text: Subarachnoid hemorrhage was induced by a model originally devised by Svendgaard et al and carefully described by Prunell et al (2003). Male Sprague-Dawley rats (350-400 g) were anaesthetized using 5% halothane (Halocarbon Laboratories, River Edge, N.J.) in N2O/O2 (30:70). The rat was intubated and artificially ventilated with inhalation of 0.5-1.5% halothane in N2O/O2 (70:30) during the surgical procedure. The depth of anaesthesia was carefully monitored and the respiration checked by regularly withdrawing arterial blood samples for blood gas analysis (Radiometer, Copenhagen, Denmark). An electric temperature probe was inserted into the rectum of the rat to record the temperature, which was maintained at 37° C. An arterial catheter to measure blood pressure was placed in the tail artery and a catheter to monitor intracranial pressure (ICP) was placed in the subarachnoid space under the subocciptal membrane. At either side of the skull, 3 mm from the midline and 4 mm anteriorly from the bregma, holes were drilled through the skull bone down to dura mater (without perforation) allowing the placement of two laser-Doppler flow probes to measure cortical CBF. Finally, a 27G blunt canula with side hole was introduced 6.5 mm anterior to bregma in the midline at an angle of 30° to the vertical. With the aperture pointing to the right, the needle was lowered until the tip reached the skull base 2 to […] anterior to the chiasma. After 30 minutes of equilibration 250 μl blood was withdrawn from the tail catheter and injected intracranially via this canula at a pressure equal to the mean arterial blood pressure (MABP) (80-100 mmHg). Subsequently the rat was kept under anaesthesia for another 60 minutes to allow recovery from the cerebral insult after which catheters were removed and incisions closed. The rat was then revitalized and extubated. A subcutaneous injection of carprofen (4.0 mg/kg) (Pfizer, Denmark) was administered and the rat was hydrated subcutaneously using […] isotonic sodium chloride at the end of the operation and at day one.

[2] = system: MCA and BA from SAH rats; assay: Myograph contractile response to ET-1 in cerebral arteries of treated SAH rats; parameters: species or system rat; conditions: in vivo treated SAH rats compared to SAH rats, no significant difference to sham
Method: (§1) After 48 hours of observation sham, SAH treated with SB386023-b or treated with the PKC inhibitor RO-31-7549 or U0126 or SAH+vehicle operated rats (see above SAH model) were anaesthetized with CO2 and decapitated. The brains were quickly removed and chilled in ice-cold bicarbonate buffer solution (see composition below). Under a dissection microscope, the middle cerebral artery (MCA), the basilar artery (BA) and circle of Willis were carefully dissected free from the brain and cleared of connective tissue. The MCA and BA were immediately mounted in myographs for in vitro pharmacology or snap frozen at −80° C. and examined by real-time PCR.
In vitro Pharmacology Myograph Experiments For contractile experiments a sensitive myograph was used for recording the isometric tension in isolated cerebral arteries (Hogestatt et al., (1983, Mulvany and Helpern, 1977). The vessels were cut into 1 mm long cylindrical segments and mounted on two 40 μm in diameter stainless steel wires in a Myograph (Danish Myo Technology A/S, Denmark). One wire was connected to a force displacement transducer attached to an analog-digital converter unit (ADInstruments, Oxford, UK). The other wire was connected to a micrometer screw, allowing fine adjustments of vascular tone by varying the distance between the wires. Measurements were recorded on a computer by use of a PowerLab unit (ADInstruments). […]

[3] = system: MCA and BA from rats with induced SAH; assay: Myograph contractile response to 5-CT in cerebral arteries of treated SAH rats; parameters: species or system rat; conditions: treatment in vivo, compared to SAH rats; for 5-CT contraction, first 5-HT1B and second 5-HT2A phases: BA; for 5-CT contraction Emax(1) / 5-CT contraction Emax(2), pEC50(1) and pEC50(2): MCA
Method: as §1
In vitro Pharmacology Myograph Experiments For contractile experiments a sensitive myograph was used for recording the isometric tension in isolated cerebral arteries (Hogestatt et al., (1983, Mulvany and Helpern, 1977). The vessels were cut into 1 mm long cylindrical segments and mounted on two 40 μm in diameter stainless steel wires in a Myograph (Danish Myo Technology A/S, Denmark). One wire was connected to a force displacement transducer attached to an analog-digital converter unit (ADInstruments, Oxford, UK). The other wire was connected to a micrometer screw, allowing fine adjustments of vascular tone by varying the distance between the wires. Measurements were recorded on a computer by use of a PowerLab unit (ADInstruments). The segments were immersed in a temperature controlled buffer solution (37° C.) of the following composition (mM) NaCl 119, NaHCO3 15, KCl 4.6, MgCl2 1.2, NaH2PO4 1.2, CaCl2 1.5 and glucose 5.5. The buffer was continuously aerated with oxygen enriched with 5% CO2 resulting in a pH of 7.4. The vessels were stretched to an initial resting tone of 2 mN and then allowed to stabilize at this tone for 1 hour. The contractile capacity was determined by exposing the vessels to an isotonic solution containing 63.5 mM of K+, obtained by partial change of NaCl for KCl in the above buffer. The contraction induced by K+ was used as reference for the contractile capacity. Only vessels responding by contraction of at least 2.0 mN to potassium for BA and 0.8 mN to potassium for MCA were included in the study. The presence of the endothelium was checked by precontracting the vessel using 5-HT (10^−6.5M) (Sigma, St Louis, USA) and subsequently exposing the segments to carbachol (10^−5 M) (Sigma, St Louis, USA). A relaxant response of the precontracted tension was considered indicative of a functional endothelium (Hansen-Schwartz et al., 2003a).
Concentration-response curves were obtained by cumulative application of 5-CT (Sigma, St. Louis, USA) in the concentration range 10^−12 to 10^−5 M, ET-1 (AnaSpec, San Jose, USA) in the concentration range 10^−14 to 10^−7 M and Ang II (Sigma, St. Louis, USA) in the concentration range 10^−12 to 10^−6 M. Before application of Ang II the arteries were pretreated with the AT2 receptor antagonist PD123319 (10^−5.5 M) for 30 minutes (a kind gift from Dr P. Morsing, Astra-Zeneca, Molndal, Sweden).
Data are expressed as mean±standard error of the mean (s.e.m.), and n refers to the number of rats. Statistical analyses were performed with Kruskal-Wallis non-parametric test with Dunn's post-hoc test, where P<0.05 was considered significant. In vitro Pharmacology Contractile responses in each segment are expressed as percentage of the 63.5 mM K+ induced contraction. Emax value represents the maximum contractile response elicited by an agonist and the pEC50 the negative logarithm of the drug concentration that elicited half the maximum response. For biphasic responses, Emax(1) and pEC50(1) describes the high affinity phase and Emax(2) and pEC50(2) describes the low affinity phase.

Row | Compound | physiological parameters (MABP, pCO2, pO2, hematocrit, temperature), difference between groups [1] | ET-1 induced contractile response [2] | 5-CT contraction, first 5-HT1B and second 5-HT2A phases [3] | 5-CT contraction Emax(1) [3] | 5-CT contraction Emax(2), pEC50(1) and pEC50(2) [3]
1 | Cn1cc(C2=C(c3cn(CCCN)c4ccccc34)C(=O)NC2=O)c2ccccc21 [RO-31-7549] | No statistical difference | significantly attenuated | downregulated | significantly reduced | tendency to decrease
2 | Oc1cc(-c2nc(-c3ccccc3)[nH]c2-c2ccncc2)ccc1Cl [SB386023-b] | No statistical difference | significantly attenuated | downregulated | significantly reduced | tended to decrease
3 | N#CC(=C(/N)Sc1ccccc1N)/C(C#N)=C(\N)Sc1ccccc1N [U0126] | No statistical difference |  |  | significantly reduced | tended to decrease
